The source of these data is patent US8722727B2, “Antifungal agents” (Seynix, Inc., priority 2008, dated 2014).

The target of the test is T1, glucan synthase (GS) (Candida albicans, UniProt O13428).
T1 construct: Extraction of GS activity from membranes was performed at a protein concentration of 5 mg/mL in extraction buffer; endogenous in cells; host or cells: Candida albicans MY1055 (membrane fraction, detergent extraction, product entrapment)
T1 sequence (O13428 1-1897): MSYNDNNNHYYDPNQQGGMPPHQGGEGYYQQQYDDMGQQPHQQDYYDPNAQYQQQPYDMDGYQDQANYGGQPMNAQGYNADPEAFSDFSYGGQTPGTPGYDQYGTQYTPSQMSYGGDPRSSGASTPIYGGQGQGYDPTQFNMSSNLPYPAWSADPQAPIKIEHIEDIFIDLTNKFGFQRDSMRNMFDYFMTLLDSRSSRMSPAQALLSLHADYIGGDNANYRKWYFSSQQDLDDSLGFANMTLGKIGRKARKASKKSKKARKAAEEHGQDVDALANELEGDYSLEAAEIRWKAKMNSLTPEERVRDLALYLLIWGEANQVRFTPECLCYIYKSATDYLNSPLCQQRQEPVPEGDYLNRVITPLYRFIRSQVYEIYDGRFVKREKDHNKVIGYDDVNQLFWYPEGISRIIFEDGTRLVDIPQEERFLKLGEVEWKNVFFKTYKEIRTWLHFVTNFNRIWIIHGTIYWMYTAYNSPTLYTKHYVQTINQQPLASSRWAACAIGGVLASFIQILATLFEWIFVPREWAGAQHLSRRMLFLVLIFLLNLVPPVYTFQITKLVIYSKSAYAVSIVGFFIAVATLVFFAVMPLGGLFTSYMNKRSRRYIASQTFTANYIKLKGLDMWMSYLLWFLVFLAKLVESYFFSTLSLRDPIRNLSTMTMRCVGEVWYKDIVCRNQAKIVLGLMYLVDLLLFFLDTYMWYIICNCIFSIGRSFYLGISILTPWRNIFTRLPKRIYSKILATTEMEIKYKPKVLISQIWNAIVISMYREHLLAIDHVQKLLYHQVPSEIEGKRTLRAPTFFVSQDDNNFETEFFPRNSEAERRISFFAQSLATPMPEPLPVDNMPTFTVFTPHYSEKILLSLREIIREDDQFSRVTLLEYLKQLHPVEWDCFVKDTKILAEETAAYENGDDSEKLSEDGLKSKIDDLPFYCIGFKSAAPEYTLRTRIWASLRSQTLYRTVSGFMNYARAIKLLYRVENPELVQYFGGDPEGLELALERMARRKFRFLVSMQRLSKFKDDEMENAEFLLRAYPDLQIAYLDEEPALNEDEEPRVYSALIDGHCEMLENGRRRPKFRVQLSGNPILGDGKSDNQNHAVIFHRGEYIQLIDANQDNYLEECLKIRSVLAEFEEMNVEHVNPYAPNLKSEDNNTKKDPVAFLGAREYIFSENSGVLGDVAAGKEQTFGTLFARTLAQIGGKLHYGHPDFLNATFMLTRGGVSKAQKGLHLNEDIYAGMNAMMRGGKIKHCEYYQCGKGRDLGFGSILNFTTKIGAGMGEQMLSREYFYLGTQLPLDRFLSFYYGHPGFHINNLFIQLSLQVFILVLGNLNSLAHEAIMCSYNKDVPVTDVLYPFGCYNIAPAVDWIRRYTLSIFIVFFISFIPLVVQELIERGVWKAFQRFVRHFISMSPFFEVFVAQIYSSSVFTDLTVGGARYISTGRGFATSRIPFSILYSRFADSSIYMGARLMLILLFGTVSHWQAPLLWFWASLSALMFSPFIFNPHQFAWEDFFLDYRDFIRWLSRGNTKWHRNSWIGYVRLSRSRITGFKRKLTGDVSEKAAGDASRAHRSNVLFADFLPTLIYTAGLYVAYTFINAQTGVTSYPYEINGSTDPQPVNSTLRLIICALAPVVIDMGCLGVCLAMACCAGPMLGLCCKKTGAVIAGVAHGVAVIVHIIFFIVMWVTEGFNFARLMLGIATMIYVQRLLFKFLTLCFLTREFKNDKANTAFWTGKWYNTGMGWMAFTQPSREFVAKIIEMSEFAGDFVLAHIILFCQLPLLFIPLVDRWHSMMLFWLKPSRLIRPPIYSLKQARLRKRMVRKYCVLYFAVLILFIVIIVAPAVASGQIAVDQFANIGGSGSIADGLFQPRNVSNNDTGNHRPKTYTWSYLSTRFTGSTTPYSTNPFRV
T1 sequence (O42825 1-195 partner limits assumed): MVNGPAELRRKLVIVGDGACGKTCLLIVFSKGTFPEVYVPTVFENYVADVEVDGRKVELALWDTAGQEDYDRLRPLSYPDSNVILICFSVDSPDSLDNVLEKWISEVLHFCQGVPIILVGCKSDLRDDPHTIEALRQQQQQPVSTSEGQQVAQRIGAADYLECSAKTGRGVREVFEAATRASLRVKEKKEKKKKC
In words: Glucan synthase inhibition (polymerization assay, 96-well). Format: biochemical. The settings on record: glucan synthase prepared from Candida albicans MY1055; 60 min incubation at 22° C.; read-out: Candida Albicans GS IC50 (ng/mL) (converted). The protocol:
The in vitro evaluation of glucan synthase inhibitory activity of compounds was measured in a polymerization assay in 96-well format. Each well contained 100 μL of ^3H-UDPG at 0.5 mM (6000 to 8000 dpm/nmol), 50 mM HEPES pH 7.5 (Sigma), 10% w/v glycerol (Sigma), 1.5 mg/mL bovine serum albumin (Sigma A 9647. Lot 44H0190), 25 mM KF (Fisher), 1 mM EDTA (Gibco ULTRAPURE), 25 μM GTP-γ-S, enzyme sufficient to give 3 to 6 nmoles incorporation during the 60 min incubation at 22° C., and test compound added from wells in 3-fold serial dilutions in 100% DMSO (1 μL/well). The reaction was stopped by the addition of 100 μL of 20% trichloroacetic acid. Plates were chilled for a minimum of 10 min, and precipitated glucan collected by filtration on GF/C plates (Packard UNIFILTER®-96), washed with 5 cycles of water (about 1 mL/well each cycle) using a Packard FILTERMATE HARVESTER. 40 μL/well scintillation fluid (Packard ULTIMA GOLD TM-XR) was added and the sealed plates counted in a WALLAC BETA counter in top-counting mode at an efficiency of approximately 40%.
Stock solutions were stored at 10 mg/mL in DMSO at −20° C. For each new enzyme preparation, the initial titration performed started at 1 mg/mL, which was prepared by making a 10-fold dilution in DMSO (5 μL to 50 μL). 40 μL of this stock was placed in column 12 of a round-bottomed 96-well microtiter plate. 40 μL DMSO was added to columns 1 to 11 in the same row and ten 3-fold serial dilutions performed, by transferring 20 μL from column 12 to column 11 etc., with 4 mixings before each transfer. No test compound was transferred to from column 2 to column 1. Duplicate aliquots of 1 μL of all 12 dilutions were then transferred to the side walls of a 96-well Bioblock 1.1 mL plate (Fisher brand) to create two rows. Graphs of the primary data were created in PRISM software (the average of two determinations) using PRISM's curve fitting program (sigmoidal dose response non-linear regression). The amount of compound required to inhibit glucan synthase activity by 50% in this assay (IC50-ng/mL) was calculated.
Routine analysis was performed with glucan synthase (GS) prepared from Candida albicans MY1055 by the following procedure: MY1055 was grown in 10 liters YPD medium (10 g yeast extract, 20 g tryptone, 20 g glucose per liter) with vigorous shaking at 30° C., to early stationary phase. Cells were harvested by centrifugation, the pellet was washed and frozen at −70° C. until breakage. Thawed pellets were shaken with an equal volume of breakage buffer (50 mM HEPES pH 7.4, 10% glycerol, 1 mM EDTA, 1 mM PMSF, 1 mM DTT) and 4 times their weight of 0.5 mm acid washed glass beads for 2 hours at 4° C. Extent of breakage was assessed visually at 40× magnification. After low speed centrifugation to remove cell debris, the supernatant was centrifuged at 100,000×g for 60 min. to separate membranes plus ribosomes from cytoplasmic components. Membranes were further washed two additional times with breakage buffer using the same centrifugation conditions and finally suspended in breakage buffer at 25 to 30 mg/mL protein (Biorad) for storage at −70° C. Extraction of GS activity from membranes was performed at a protein concentration of 5 mg/mL in extraction buffer (50 mM NaPO4 pH 7.5, 0.1 M KCl, 0.1M Na citrate, 20% glycerol, 5 μM GTP-γ-S, 1 mM DTT, 1 mM PMSF, 3 μg/mL pepstatin) plus 0.25% W1 by gentle mixing at 4° C. for 60 min, followed by centrifugation at 100,000×g for 60 min. After centrifugation, clear supernatant was removed from a pellet consisting of a hard layer usually with small amounts of gelatinous unextracted membranes above it.
Trapping was initiated immediately by 5-fold dilution in trapping buffer (50 mM HEPES pH 7.5, 10 mM KF, 1 mM EDTA, 2 mg/mL BSA) plus 2.5 mM UDPG and 10 μM GTP-γ-S. After incubation at 25° C. for 60 to 90 minutes, glucan was harvested by low speed centrifugation (3,000×g, 10 min). […]
For the molecule `CC(C)[C@@H](C)[C@@]1(C)CC[C@]2(C)[C@H]3CC[C@@H]4[C@@]5(COC[C@@]4(C)[C@@H](OC[C@](C)(C(C)C)N(C)C)[C@H](n4nnc(N)n4)C5)C3=CC(=O)[C@@]2(C)[C@@H]1C(=O)O` (single isomer, unassigned) [Example 15A], the IC50 was 64.6 nM. The value for `CC(C)[C@@H](C)[C@@]1(C)CC[C@]2(C)[C@H]3CC[C@@H]4C5(COCC4(C)[C@@H](OCC4CCCN4C)[C@H](n4nnc(N)n4)C5)C3=CC[C@@]2(C)[C@@H]1C(=O)O` (stereo in doubt) [Example 46, (1S,4aR,6aS,7R,8R,10aR,10bR,12aR,14R,15R)-14-(5-amino-2H-tetrazol-2-yl)-8-[(1R)-1,2-dimethylpropyl]-15-[(1-methyl-2-pyrrolidinyl)methoxy]-1,6,6a,7,8,9,10,10a,10b,11,12,12a-dodecahydro-1,6a,8,10a-tetramethyl-4H-1,4a-propano-2H-phenanthro[1,2-c]pyran-7-carboxylic acid] was 21.4 nM.

In the case of `CC(C)[C@@H](C)[C@@]1(C)CC[C@]2(C)[C@H]3CC[C@@H]4[C@@]5(COC[C@@]4(C)[C@@H](OCC(C)(C)N)[C@H](n4ncnn4)C5)C3=CC[C@@]2(C)[C@@H]1C(=O)O` [Example 1B, (1S,4aR,6aS,7R,8R,10aR,10bR,12aR,14R,15R)-15-(2-amino-2-methylpropoxy)-8-[(1R)-1,2-dimethylpropyl]-14-(2H-tetrazol-2-yl)-1,6,6a,7,8,9,10,10a,10b,11,12,12a-dodecahydro-1,6a,8,10a-tetramethyl-4H-1,4a-propano-2H-phenanthro[1,2-c]pyran-7-carboxylic acid], the IC50 is 9.81 nM.

With `CC(C)[C@@H](C)[C@@]1(C)CC[C@]2(C)[C@H]3CC[C@@H]4[C@@]5(COC[C@@]4(C)[C@@H](OCC(C)(N)C(C)C)[C@H](n4cnnn4)C5)C3=CC[C@@]2(C)[C@@H]1C(=O)O` (stereo partly drawn) [Example 2A, (1S,4aR,6aS,7R,8R,10aR,10bR,12aR,14R,15R)-15-(2-amino-2,3-dimethylbutoxy)-8-[(1R)-1,2-dimethylpropyl]-14-(1H-tetrazol-1-yl)-1,6,6a,7,8,9,10,10a,10b,11,12,12a-dodecahydro-1,6a,8,10a-tetramethyl-4H-1,4a-propano-2H-phenanthro[1,2-c]pyran-7-carboxylic acid], the IC50 is 82.8 nM. Regarding `CC(C)[C@@H](C)[C@@]1(C)CC[C@]2(C)[C@H]3CC[C@@H]4[C@@]5(COC[C@@]4(C)[C@@H](OCC(C)(C(C)C)N(C)C)[C@H](n4ncnn4)C5)C3=CC(=O)[C@@]2(C)[C@@H]1C(=O)O` (stereo partly drawn) [Example 4B, (1S,4aR,6aS,7R,8R,10aR,10bR,12aR,14R,15R)-15-[2-(dimethylamino)-2,3-dimethylbutoxy]-8-[(1R)-1,2-dimethylpropyl]-14-(2H-tetrazol-2-yl)-1,6,6a,7,8,9,10,10a,10b,11,12,12a-dodecahydro-1,6a,8,10a-tetramethyl-6-oxo-4H-1,4a-propano-2H-phenanthro[1,2-c]pyran-7-carboxylic acid], the IC50 is 63.1 nM. As for `CC(C)[C@@H](C)[C@@]1(C)CC[C@]2(C)[C@H]3CC[C@@H]4[C@@]5(COC[C@@]4(C)[C@@H](OCC(C)(C)N)[C@H](n4nnc(N)n4)C5)C3=CC[C@@]2(C)[C@@H]1C(=O)O` [Example 6, (1S,4aR,6aS,7R,8R,10aR,10bR,12aR,14R,15R)-15-(2-amino-2-methylpropoxy)-14-(5-amino-2H-tetrazol-2-yl)-8-[(1R)-1,2-dimethylpropyl]-1,6,6a,7,8,9,10,10a,10b,11,12,12a-dodecahydro-1,6a,8,10a-tetramethyl-4H-1,4a-propano-2H-phenanthro[1,2-c]pyran-7-carboxylic acid], the IC50 was 4.79 nM. Take `CC(C)[C@@H](C)[C@@]1(C)CC[C@]2(C)[C@H]3CC[C@@H]4[C@@]5(COC[C@@]4(C)[C@@H](OC[C@@](C)(C(C)C)N(C)C)[C@H](n4nnc(N)n4)C5)C3=CC[C@@]2(C)[C@@H]1C(=O)O` [Example 8, (1S,4aR,6aS,7R,8R,10aR,10bR,12aR,14R,15R)-14-(5-amino-2H-tetrazol-2-yl)-15-[[(2R)-2-(dimethylamino)-2,3-dimethylbutyl]oxy]-8-[(1R)-1,2-dimethylpropyl]-1,6,6a,7,8,9,10,10a,10b,11,12,12a-dodecahydro-1,6a,8,10a-tetramethyl-4H-1,4 a-propano-2H-phenanthro[1,2-c]pyran-7-carboxylic acid]: the IC50 was 13.2 nM. The value for `CC(C)[C@@H](C)[C@@]1(C)CC[C@]2(C)[C@H]3CC[C@@H]4[C@@]5(COC[C@@]4(C)[C@@H](OC[C@](C)(N)C(C)C)[C@H](n4nnnc4N)C5)C3=CC[C@@]2(C)[C@@H]1C(=O)O` [Example 9, (1S,4aR,6aS,7R,8R,10aR,10bR,12aR,14R,15R)-15-[[(2R)-2-amino-2,3-dimethylbutyl]oxy]-14-(5-amino-1H-tetrazol-1-yl)-8-[(1R)-1,2-dimethylpropyl]-1,6,6a,7,8,9,10,10a,10b,11,12,12a-dodecahydro-1,6a,8,10a-tetramethyl-4H-1,4a-propano-2H-phenanthro[1,2-c]pyran-7-carboxylic acid] was 56.5 nM. Take `CC(C)[C@@H](C)[C@@]1(C)CC[C@]2(C)[C@H]3CC[C@@H]4[C@@]5(COC[C@@]4(C)[C@@H](OC[C@](C)(C(C)C)N4CCCCC4)[C@H](n4nnc(N)n4)C5)C3=CC[C@@]2(C)[C@@H]1C(=O)O` [Example 11, (1S,4aR,6aS,7R,8R,10aR,10bR,12aR,14R,15R)-14-(5-amino-2H-tetrazol-2-yl)-15-[[(2S)-2,3-dimethyl-2-(1-piperidinyl)butyl]oxy]-8-[(1R)-1,2-dimethylpropyl]-1,6,6a,7,8,9,10,10a,10b,11,12,12a-dodecahydro-1,6a,8,10a-tetramethyl-4H-1,4a-propano-2H-phenanthro[1,2-c]pyran-7-carboxylic acid]: the IC50 is 78.8 nM. Regarding `CC(C)[C@@H](C)[C@@]1(C)CC[C@]2(C)[C@H]3CC[C@@H]4[C@@]5(COC[C@@]4(C)[C@@H](OC[C@](C)(NCCCO)C(C)C)[C@H](n4nnc(N)n4)C5)C3=CC[C@@]2(C)[C@@H]1C(=O)O` [Example 13, (1S,4aR,6aS,7R,8R,10aR,10bR,12aR,14R,15R)-14-(5-amino-2H-tetrazol-2-yl)-8-[(1R)-1,2-dimethylpropyl]-15-[[(2R)-2-[(3-hydroxypropyl)amino]-2,3-dimethylbutyl]oxy]-1,6,6a,7,8,9,10,10a,10b,11,12,12a-dodecahydro-1,6a,8,10a-tetramethyl-4H-1,4a-propano-2H-phenanthro[1,2-c]pyran-7-carboxylic acid], the IC50 was 2.8 nM. As to `CCN[C@@](C)(CO[C@H]1[C@H](n2nnc(N)n2)C[C@@]23COC[C@]1(C)[C@@H]2CC[C@H]1C3=CC[C@@]2(C)[C@H](C(=O)O)[C@@](C)([C@H](C)C(C)C)CC[C@]12C)C(C)(C)C` [Example 20, (1S,4aR,6aS,7R,8R,10aR,10bR,12aR,14R,15R)-14-(5-amino-2H-tetrazol-2-yl)-8-[(1R)-1,2-dimethylpropyl]-15-[[(2R)-2-(ethylamino)-2,3,3-trimethylbutyl]oxy]-1,6,6a,7,8,9,10,10a,10b,11,12,12a-dodecahydro-1,6a,8,10a-tetramethyl-4H-1,4a-propano-2H-phenanthro[1,2-c]pyran-7-carboxylic acid], the IC50 was 4.3 nM.
